Laboratory results taken from patent publication US20060135587A1, “Method and compounds for promoting healing and reducing inflammation” (priority 2002, published 2006).

Tests used:
myocardial infarction = assay: Clinical comparison of Compound 2 and Riboxin in subacute myocardial infarction (Example 25); type: in vivo, human
Description: A total of 94 patients were examined; of these:
Conventional therapy as for example 24 was given to 30 patients. Each patient continued to receive the treatment which s/he had been given prior to commencement of the trial. Compound 2 was administered in addition to the previous treatment.
All the patients underwent standard laboratory tests prior to commencement of Compound 2 therapy, 14 days after the beginning of the course and upon completion of the course. The tests included clinical blood analysis; general urine analysis; evaluation of creatinine, bilirubin, transaminase activity, blood sugar, cholesterol and β-lipoproteins, malonic dialdehyde, Schiff bases, zinc, iron, copper, plasma potassium and sodium, prothrombin and fibrinogen; and an ECG examination in dynamics.
All the patients received conventional therapy, i.e. nitrates, anticoagulants and/or hypotensive agents as appropriate.
Combination therapy included Compound 2 (1st group—32 patients) or Riboxin (2nd group—18 patients). The agents were administered at a dose of 200 mg three times per day.

[1] = system: acute Con A-induced inflammation; assay: Acute Con A-induced inflammation (paw oedema) in mice; type: in vivo
Description: Saline solution was similarly administered to the control animals. There were 10 mice in each group. After one hour, con A at a dose of 100 mkg/20 g of body weight was administered by sub-plantar injection into the plantar aponeurosis of the left paws of mice of both the experimental and control groups. The same amount of saline splution was injected into the contralateral paws. After one hour, the mice were killed and the experimental and control paws were weighed to assess the reaction index of the inflammation in the ankle-joint (Liubimov et al, 1999).
The anti-inflammatory effect of Compound 2 and Compound 7 was compared in male mice weighing 18-22 g, using the model described in Example 9. The ED50, i.e. the dose reducing paw ooedema by 50% one hour after injection of Concanavalin A, was calculated.

[2] = system: lesions of the gastric mucosa; assay: Gastric lesions induced by electrostimulation of immobilised rats; type: in vivo
Description: (§1) The models used gastric ulcers induced by
a) Electrostimulation of immobilised rats for 3 hours;
(§2) The compounds were administered intraperitoneally at a dose of 20 mg/kg; in the cryogenic ulcer model compound 2 was administered either intraperitoneally (10 mg/kg) or orally (20 mg/kg twice daily, ie. a total of 40 mg/kg/day) and was compared to orally-administered gastrocepin (1 mg/kg twice daily, ie. a total of 2 mg/kg/day).

[3] = system: lesions of the gastric mucosa; assay: Gastric lesions induced by immobilization and hypothermia; type: in vivo, rats; parameters: % reduction of degree of ulceration / % reduction of ulcerated area: concentration or dose not given beside the values; conditions: Protective effect, 30 minutes before the test
Description: as §1
b) Immobilization and hypothermia (induced by water cooling);
as §2

[4] = system: cryogenic ulcer of the gastric mucosa; assay: Cryogenic gastric ulcer in rats; type: in vivo; conditions: healing effect over the course of 14 days; regimen not printed in the row
Description: as §1
c) Ulcer created by local wounding with a cryogenic probe using a method similar to that described above for mouth ulcers.
as §2

white male mice = conditions: for LD50: intraperitoneal injection, white male mice, 14 days observation
Description: The acute toxicity of 1,3-dialkyl-4,5-bis (N-methylcarbamoyl)imidazolium salts was assessed following intraperitoneal injection into 200 white male mice weighing 18 to 20 g. Dead animals were counted daily after the administration of the test substance.

[5] = system: cryogenic injuries of the sigmoid colon; assay: Cryogenic damage of the colon, model of ulcerative colitis; type: in vivo, rats; conditions: day 7; oral; Methyl uracil 180 mg/kg, Potassium orotate 50 mg/kg + Riboxin 50 mg/kg, Sulfasalazine 2 g/kg; one figure for the comparison agents
Description: A model of cryogenic damage of the colon was used in this experiment to simulate ulcerative colitis. Cryogenic injuries of the sigmoid colon of rats were induced by pressing a metal rod of […] in diameter cooled in liquid nitrogen to the serous membrane of the colon for 10 seconds under ether anaesthesia.
Tests were performed on 67 male rats weighing 180-200 g, with 8 animals in each group. Animals were kept in separate cages, with normal food and water ad libitum. The test compounds were administered orally on the second day after the operation, and then daily until healing was complete. Compound 2 or Compound 6 was administered to test animals at a dose of 20-50 mg/kg. The following agents were used for comparison:
The nature of the healing of the ulcer injury was examined morphologically on days 1, 3 and 7. […] The inflammatory process extends beyond the injured area into the adjacent areas, and beyond the peritoneum into fatty connective tissue.

[6] = system: neurogenic dystrophy of the myocardium; assay: Myocardial infarction model (electrostimulation), enzymes in rabbit myocardium; type: in vivo, rabbits; conditions: 5 mg/kg; 48 hours after electrostimulation
Source text: The effect of Compound 2 on myocardial tissue in an experimental model of myocardial infarction was examined. In this model system neurogenic dystrophy of the myocardium was induced in rats or rabbits by electrical stimulation of the reflexogenic zone of the aortic arch by implanted electrodes for a period of three hours. […] These changes are accompanied by changes in biochemical indicators such as creatine phosphate, cAMP, and calcium ion concentrations, and changes in the activity of redox enzymes such as succinate dehydrogenase, lactate dehydrogenase, and glucose-6-phosphate dehydrogenase. At a later stage organic lesions of the myocardium such as necrotic and fibrosclerotic foci can be observed.
The effect of Compound 2 given intraperitoneally or orally on these indicators was examined in rats and rabbits following electrostimulation as described above. The effects on levels of creatine phosphate in rat myocardial are shown in Table 19, and the effects on adenosine triphosphatase (ATPase), succinate dehydrogenase and glucose-6-phosphate dehydrogenase rabbit myocardium are shown in Table 20. The effects on cAMP and Ca^++ levels in rabbit myocardial tissue are shown in FIG. 5, and effects on creatine kinase in rabbit myocardium and blood and the levels of creatine phosphate in myocardium are shown in FIG. 6.

[7] = 200 mg three times per day plus conventional therapy
[8] = Healing effect over the course of 3 days
[9] = Protective effect, 30 minutes before the test
[10] = Table 4, 0.005M dose (Compound 2 19 mg/kg, Compound 7 16.4 mg/kg) + Con A
[11] = Table 4, 0.01M dose (Compound 2 38 mg/kg, Compound 7 32 mg/kg) + Con A
[12] = Table 4, 0.015M dose (Compound 2 57 mg/kg, Compound 7 49 mg/kg) + Con A
[13] = Table 4, 0.02M dose (Compound 2 76 mg/kg, Compound 7 65.6 mg/kg) + Con A

## OC[C@H]1O[C@@H](n2cnc3c(O)ncnc32)[C@H](O)[C@@H]1O [Riboxin, inosine, reference compound]
Myocardial infarction; [7]
  cholesterol levels: 85.5%
  level of prothrombin: 88.7%
Myocardial infarction; 200 mg three times per day plus conventional therapy, 54.4±1.5% in the absence of the agent
  ejection fraction: 56.8±1.3%
Myocardial infarction; after therapy, 18-20 before treatment, norm 23
  superoxide dismutase levels: 21.5 conventional units
Myocardial infarction; after therapy, 75 before treatment, normal 60
  level of Schiff bases: 62.6 conventional units
Myocardial infarction; patients with repeated myocardial infarct
  cases in which cicatrisation took place one or two days earlier: 12%

## 1,3-dimethyl-4,5-bis(N-methylcarbamoyl)-imidazolium benzenesulfonate [Compound 1]
[1]; Table 3, 10 mg/kg intra-peritoneally one hour before Con A, male CBA mice
  Reaction index (%): 14.6 ± 3.5%
[1]; Table 3, 50 mg/kg intra-peritoneally one hour before Con A, male CBA mice
  Reaction index (%): 5.3 ± 2.0 %
[2]; [8]
  % reduction of degree of ulceration: 18%
  Average number of lesions per animal: 2.8 ± 0.7
[2]; [9]
  % reduction of degree of ulceration: 0%
  % reduction of ulcerated area: 0%
  Area of lesion: 15.0 ± 4.7
[2]; Protective effect, 30 minutes before the test, 20 mg/kg intraperitoneally
  Average number of lesions per animal: 7.0 ± 0.7
[3]
  % reduction of degree of ulceration: 0%
  % reduction of ulcerated area: 0%
  Area of lesion: 10.1 ± 1.4
[3]; 20 mg/kg intraperitoneally
  Average number of lesions per animal: 10.2 ± 1.2
[4]
  % reduction of degree of ulceration: 53%
  Average number of lesions per animal: 8.8 ± 1.9
White male mice
  toxicity: very low toxicity
  LD50: 1833 mg/kg

## 1-methyl-3-ethyl-4,5-bis(N-methylcarbamoyl)-imidazolium 2,4-dihydroxybenzoate [Compound 7]
[1]; [10]
  Paw oedema reduction (%): 60%
  Reaction index (%): 6.73 ± 2.2%
[1]; [11]
  Paw oedema reduction (%): 13%
  Reaction index (%): 9.93 ± 2.8%
[1]; [12]
  Paw oedema reduction (%): 45%
  Reaction index (%): 7.2 ± 1.8%
[1]; [13]
  Paw oedema reduction (%): 70%
  Reaction index (%): 4.9 ± 1.7%
[1]; male mice
  ED50, dose reducing paw oedema by 50% one hour after injection of Concanavalin A: 52 mg/kg
White male mice
  toxicity: very low toxicity
  LD50: 1221 mg/kg

## Cc1cc(=O)[nH]c(=O)[nH]1 [Methyl uracil, reference compound]
[5]
  animals demonstrating complete healing: 18%

## O=C(O)c1cc(/N=N/c2ccc(S(=O)(=O)Nc3ccccn3)cc2)ccc1O [Sulphasalazine, Sulfasalazine, reference compound]
[5]
  animals demonstrating complete healing: 18%

## CCn1cnc(C(=O)NC)c1C(=O)NC [Ethimizol, 1-ethylimidazole-4,5-dicarboxylic acid bis-N-methylamide, reference compound]
[6]
  ATPase: 0.43 ± 0.11 µM/mg/min
  Glucose-6-phosphate dehydrogenase (optical density units): 5.8 ± 0.7 optical density units
  Succinate dehydrogenase (optical density units): 39.7 ± 7.4 optical density units
